Laboratory results as given in patent publication US20250034113A1, “SOLID STATE FORMS OF TAVAPADON AND PROCESSES FOR PREPARATION THEREOF” (TEVA CZECH INDUSTRIES S.R.O, priority 2021, published 2025).

Assay: Stability test of crystalline forms at different relative humidities and temperatures, XRPD analysis
Type: physicochemical
Conditions: for XRPD analysis after storage: 2 month; for stability to conditions of relative humidity at elevated temperatures: general statement; for time stable after exposure to different relative humidity conditions at different temperatures: 25° C./60% RH and 40° C./75% RH, by XRPD
Method: Powder X-ray Diffraction was performed on an X-Ray powder diffractometer PanAlytical X'pert Pro; CuKα radiation (λ=1.54187 Å); X'Celerator detector with active length 2.122 degrees 2-theta; laboratory temperature 25±3° C.; zero background sample holders. Prior to analysis, the samples were gently ground using a mortar and pestle to obtain a fine powder. The ground sample was adjusted into a cavity of the sample holder and the surface of the sample was smoothed using a cover glass.
• Scan range: 3-40 degrees 2-theta • Scan mode: continuous • Step size: 0.0167 degrees • […] s • Sample spin: 60 rpm • Sample holder: zero background silicon plate
Samples of Tavapadon form 1 and Form H1 were subjected to conditions of different relative humidities at different temperatures. XRPD analysis was performed on the samples after 2 month.
Samples of Tavapadon Form H1 were subjected to conditions of different relative humidities at different temperatures, over a time period of 6 months. XRPD analysis was performed on the samples after 2, 4 and 6 months.
Samples of Tavapadon Form R1 were subjected to conditions of different relative humidities at different temperatures, over a time period of 6 months. XRPD analysis was performed on the samples after 2, 4 and 6 months.

SMILES	XRPD analysis after storage (25° C., 60% RH)	XRPD analysis after storage (40° C., 75% RH)	stability to conditions of relative humidity at elevated temperatures	XRPD result (crystalline form) (0 M (start))	time stable after exposure to different relative humidity conditions at different temperatures	XRPD result (crystalline form) (25° C./60% RH, 2 M)	XRPD result (crystalline form) (25° C./60% RH, 4 M)	XRPD result (crystalline form) (25° C./60% RH, 6 M)	XRPD result (crystalline form) (40° C./75% RH, 2 M)	XRPD result (crystalline form) (40° C./75% RH, 4 M)	XRPD result (crystalline form) (40° C./75% RH, 6 M)
Cc1cc(Oc2ncccc2C(F)(F)F)ccc1-c1c(C)c(=O)[nH]c(=O)n1C (single isomer, unassigned) [Tavapadon Form 1, 1,5-dimethyl-6-(2-methyl-4-{[3-(trifluoromethyl)pyridin-2-yl]oxy}phenyl)pyrimidine-2,4(1H,3H)-dione]	No change	No change	particularly stable	–	–	–	–	–	–	–	–
Cc1cc(Oc2ncccc2C(F)(F)F)ccc1-c1c(C)c(=O)[nH]c(=O)n1C (racemic) [Tavapadon Form R1, 1,5-dimethyl-6-(2-methyl-4-{[3-(trifluoromethyl)pyridin-2-yl]oxy}phenyl)pyrimidine-2,4(1H,3H)-dione]	–	–	–	Form R1	at least 6 months	Form R1	Form R1	Form R1	Form R1	Form R1	Form R1
Cc1cc(Oc2ncccc2C(F)(F)F)ccc1-c1c(C)c(=O)[nH]c(=O)n1C (single isomer, unassigned) [Tavapadon Form H1, 1,5-dimethyl-6-(2-methyl-4-{[3-(trifluoromethyl)pyridin-2-yl]oxy}phenyl)pyrimidine-2,4(1H,3H)-dione]	No change	–	particularly stable	Form H1	at least 6 months	Form H1	Form H1	Form H1	Form H1	Form H1	Form H1
